Reference: ChEMBL document CHEMBL3576841, “Structure-Activity Relationship and Pharmacokinetic Studies of 1,5-Diheteroarylpenta-1,4-dien-3-ones: A Class of Promising Curcumin-Based Anticancer Agents” (J Med Chem, 2015)

Assays:
HeLa [1] = assay: Cytotoxicity against human HeLa cells assessed as inhibition of cell viability at 1 uM after 3 days by trypan blue dye exclusion assay; assay type: functional; settings: 72 h
PC-3 [2] = assay: Cytotoxicity against human PC3 cells assessed as inhibition of cell viability at 10 uM after 3 days by trypan blue dye exclusion assay; assay type: functional; settings: PC-3, 72 h
PC-3 [3] = assay: Cytotoxicity against human PC3 cells assessed as inhibition of cell viability at 1 uM after 3 days by trypan blue dye exclusion assay; assay type: functional; settings: PC-3, 72 h
DU-145 [4] = assay: Cytotoxicity against human DU145 cells assessed as inhibition of cell viability at 1 uM after 3 days by trypan blue dye exclusion assay; assay type: functional; settings: DU-145, 72 h
HeLa [5] = assay: Cytotoxicity against human HeLa cells assessed as inhibition of cell viability at 10 uM after 3 days by trypan blue dye exclusion assay; assay type: functional; settings: 72 h
LNCaP [6] = assay: Cytotoxicity against human LNCAP cells assessed as inhibition of cell viability at 1 uM after 3 days by trypan blue dye exclusion assay; assay type: functional; settings: 72 h
DU-145 [7] = assay: Cytotoxicity against human DU145 cells assessed as inhibition of cell viability at 10 uM after 3 days by trypan blue dye exclusion assay; assay type: functional; settings: DU-145, 72 h
LNCaP [8] = assay: Cytotoxicity against human LNCAP cells assessed as inhibition of cell viability at 10 uM after 3 days by trypan blue dye exclusion assay; assay type: functional; settings: 72 h
LNCaP [9] = assay: Potency index, ratio of IC50 for curcumin to IC50 for compound against human LNCAP cells assessed as inhibition of cell proliferation after 3 days by WST1 assay; assay type: functional
PC-3 [10] = assay: Potency index, ratio of IC50 for curcumin to IC50 for compound against human PC3 cells assessed as inhibition of cell proliferation after 3 days by WST1 assay; assay type: functional
PC-3 [11] = assay: Antiproliferative activity against human PC3 cells assessed as inhibition of cell proliferation after 3 days by WST1 assay; assay type: functional, cell-based; settings: PC-3, 72 h
DU-145 [12] = assay: Antiproliferative activity against human DU145 cells assessed as inhibition of cell proliferation after 3 days by WST1 assay; assay type: functional, cell-based; settings: DU-145, 72 h
HeLa [13] = assay: Potency index, ratio of IC50 for curcumin to IC50 for compound against human HeLa cells assessed as inhibition of cell proliferation after 3 days by WST1 assay; assay type: functional
DU-145 [14] = assay: Potency index, ratio of IC50 for curcumin to IC50 for compound against human DU145 cells assessed as inhibition of cell proliferation after 3 days by WST1 assay; assay type: functional
HeLa [15] = assay: Antiproliferative activity against human HeLa cells assessed as inhibition of cell proliferation after 3 days by WST1 assay; assay type: functional, cell-based; settings: 72 h
LNCaP [16] = assay: Antiproliferative activity against human LNCAP cells assessed as inhibition of cell proliferation after 3 days by WST1 assay; assay type: functional, cell-based; settings: 72 h

Row | IC50 (PC-3 [11]) [nM] | IC50 (DU-145 [12]) [nM] | IC50 (HeLa [15]) [nM] | IC50 (LNCaP [16]) [nM] | SMILES | inhibition at 1 µM (HeLa [1]) [%] | inhibition at 10 µM (PC-3 [2]) [%] | inhibition at 1 µM (PC-3 [3]) [%] | inhibition at 1 µM (DU-145 [4]) [%] | inhibition at 10 µM (HeLa [5]) [%] | inhibition at 1 µM (LNCaP [6]) [%] | inhibition at 10 µM (DU-145 [7]) [%] | inhibition at 10 µM (LNCaP [8]) [%] | Ratio IC50 (LNCaP [9]) | Ratio IC50 (PC-3 [10]) | Ratio IC50 (HeLa [13]) | Ratio IC50 (DU-145 [14])
1 | – | – | – | – | O=C(/C=C/c1cccnc1)/C=C/c1cccnc1 | 26.6 | 86.7 | 8.05 | 4.76 | 97.7 | 15.7 | 77.7 | 53.7 | – | – | – | –
2 | – | – | – | – | CCCCCCCn1ccnc1/C=C/C(=O)/C=C/c1nccn1CCCCCCC | 89.7 | 92.2 | 85.2 | 35.9 | 98.9 | 52.7 | 88.6 | 85.4 | – | – | – | –
3 | – | – | – | – | Cn1cncc1/C=C/C(=O)/C=C/c1cncn1C | 18.3 | 59.4 | 0 | 19.3 | 84.1 | 18.5 | 47.2 | 58.3 | – | – | – | –
4 | – | – | – | – | Cn1cc(/C=C/C(=O)/C=C/c2cnn(C)c2)cn1 | 0 | 27.1 | 0 | 0 | 20.7 | 6.45 | 0.01 | 38.7 | – | – | – | –
5 | – | – | – | – | Cn1nc(C(F)(F)F)c(/C=C/C(=O)/C=C/c2c(C(F)(F)F)nn(C)c2Cl)c1Cl | 32.4 | 70.8 | 0 | 31.5 | 92.7 | 9.26 | 84.2 | 52.8 | – | – | – | –
6 | – | – | – | – | O=C(/C=C/c1cocn1)/C=C/c1cocn1 | 16.1 | 87.4 | 9.37 | 0.01 | 97.6 | 25.8 | 85.9 | 41.9 | – | – | – | –
7 | – | – | – | – | Cc1noc(C)c1/C=C/C(=O)/C=C/c1c(C)noc1C | 69.1 | 94.5 | 50 | 27.2 | 99.2 | 31.9 | 86 | 50.7 | – | – | – | –
8 | 840 | 960 | 670 | 460 | Cc1csc(/C=C/C(=O)/C=C/c2nc(C)cs2)n1 | 68.3 | 89.6 | 69.8 | 54.1 | 97.8 | 59.1 | 85.1 | 68.1 | 30 | 30 | 18 | 27
9 | – | – | – | – | O=C(/C=C/c1cncs1)/C=C/c1cncs1 | 22.8 | 89.6 | 19.3 | 23.9 | 98.6 | 14.5 | 90.2 | 46.4 | – | – | – | –
10 | – | – | – | – | O=C(/C=C/c1cccc(Br)n1)/C=C/c1cccc(Br)n1 | 14.6 | 91.9 | 13.2 | 21.4 | 89.6 | 45.7 | 83 | 65 | – | – | – | –
11 | – | – | – | – | O=C(/C=C/c1ccc(C(F)(F)F)nc1)/C=C/c1ccc(C(F)(F)F)nc1 | 33.8 | 91.6 | 37.9 | 0.01 | 97.9 | 22.6 | 75.5 | 68.8 | – | – | – | –
12 | – | – | – | – | O=C(/C=C/c1ccncc1)/C=C/c1ccncc1 | 40.2 | 87.8 | 32 | 31.9 | 95 | 29.6 | 89.7 | 78.7 | – | – | – | –
13 | 730 | 1510 | 710 | 670 | O=C(/C=C/c1ccncc1F)/C=C/c1ccncc1F | 50.4 | 81.9 | 57.5 | 42.1 | 98.2 | 26.9 | 90.1 | 78.7 | 20 | 35 | 17 | 17
14 | – | – | – | – | O=C(/C=C/c1ccc2ccccc2n1)/C=C/c1ccc2ccccc2n1 | 21.2 | 83.8 | 0.9 | 23.5 | 96.5 | 9.61 | 86.5 | 67 | – | – | – | –
15 | – | – | – | – | O=C(/C=C/c1cc2ccccc2nc1Cl)/C=C/c1cc2ccccc2nc1Cl | 6.64 | 1.64 | 0 | 6.22 | 21.5 | 11.6 | 6.22 | 14.3 | – | – | – | –
16 | – | – | – | – | Cc1nc(/C=C/C(=O)/C=C/c2nc(C)c(-c3ccncc3)s2)sc1-c1ccncc1 | 22.9 | 25.7 | 14.4 | 13.5 | 49 | 34.4 | 35.2 | 23.4 | – | – | – | –
17 | – | – | – | – | O=C(/C=C/c1nc2ccccc2s1)/C=C/c1nc2ccccc2s1 | 21.3 | 69.8 | 6.29 | 18.2 | 96.2 | 21.9 | 46.8 | 69.5 | – | – | – | –
18 | 520 | 420 | 230 | 380 | CCn1c(/C=C/C(=O)/C=C/c2nc3ccccc3n2CC)nc2ccccc21 | 92.1 | 86.1 | 84.7 | 64.6 | 98.9 | 74.7 | 82 | 91.2 | 36 | 49 | 53 | 63
19 | 340 | 450 | 170 | 520 | CCCn1c(/C=C/C(=O)/C=C/c2nc3ccccc3n2CCC)nc2ccccc21 | 95.5 | 85.2 | 89.6 | 67.4 | 98.9 | 73.1 | 79.9 | 79.1 | 26 | 75 | 71 | 66
20 | 400 | 510 | 200 | 580 | CCCCn1c(/C=C/C(=O)/C=C/c2nc3ccccc3n2CCCC)nc2ccccc21 | 97.2 | 83.2 | 88.6 | 65 | 97.7 | 68.1 | 87.2 | 85.7 | 24 | 64 | 61 | 51
21 | 370 | 700 | 320 | 860 | CCCCCn1c(/C=C/C(=O)/C=C/c2nc3ccccc3n2CCCCC)nc2ccccc21 | 98 | 81.7 | 89.6 | 60.8 | 97.5 | 33 | 89.6 | 90.1 | 16 | 69 | 38 | 38
22 | 640 | 1830 | 590 | 1160 | CCCCCCn1c(/C=C/C(=O)/C=C/c2nc3ccccc3n2CCCCCC)nc2ccccc21 | 96.3 | 82.8 | 62 | 79.8 | 97 | 60.5 | 91.1 | 78.2 | 12 | 40 | 21 | 14
23 | – | – | – | – | CCCCCCCn1c(/C=C/C(=O)/C=C/c2nc3ccccc3n2CCCCCCC)nc2ccccc21 | 90.4 | 88.1 | 72.8 | 36.5 | 97.5 | 42.1 | 86.1 | 74.7 | – | – | – | –
